The target of one data set is T1, P2Y1 receptor (Homo sapiens, UniProt P47900).
T1 construct: expressed in transfected cells
The data set is described as follows: P2Y1 IP1 accumulation HTRF assay, antagonism of agonist MRS2365 in stably transfected cells. It counts as cell-based. The method in brief:
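HTRF IP1 accumulation in stably P2Y1-overexpressing cells, plated the day before. Compounds pre-incubated 1 hour (10-point semi-log curve from 10µM, 0.1% DMSO), then 5nM MRS2365 added for 60 minutes, both at 37°C / 5% CO2. IP1 interpolated from standard curve; IC50 from N ≥ 4 runs.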
In general terms: In TR-FRET formats the signal depends on donor and acceptor labels being close together.

Data set [1] is described as follows: CNS penetration, single compound oral or intravenous administration, brain and plasma by LC-MS/MS. The note with it: mouse. It is filed as in vivo, C57B16/J mice. As to the method: To assess pharmacokinetic properties and CNS penetration of compounds, compounds were administered to mice via the oral and intravenous routes. For oral dosing, compound solutions were prepared in a suitable vehicle (such as 10% PEG400/5% Kolliphor EL/85% H2O) at a concentration of 0.5mg/mL. Compounds were dosed via oral gavage at a dosing volume of 10mL/kg to C57B16/J mice, for a final dose of 5mg/kg. Animals were culled at 8 timepoints to 24 hours, and plasma and brain samples collected for bioanalysis.
For intravenous dosing, compound solutions were prepared in a suitable vehicle (such as 10% DMSO/90%HPCD (20%)) at a concentration of 0.2mg/mL. Compound was administered via the intravenous route in a dosing volume of 5mL/kg, for a final dose of 1mg/kg. Animals were culled at various timepoints out to 24 hours, and plasma and brain collected for bioanalysis.
For bioanalysis, compound was prepared in DMSO at a final concentration of 1mg/mL. Analytical standards were prepared from the initial 1mg/mL stock solution of compound, with a 12-point standard curve range from 0.5ng/mL to 2000ng/mL, with independent quality control tests from 1ng/mL to 1000ng/mL run to validate the standards. All standards and QC samples were matrix matched to eliminate possible suppression. Plasma samples were prepared with a 1:10 dilution in plasma. Brain tissue samples were homogenized in 0.1M phosphate buffer solution at a ratio of 1:4, and used without further dilution. Dose solutions were diluted in a control matrix to a relative concentration that fell on the standard curve. Cold acetonitrile containing internal standard was added to all samples, standards, dose samples and QC samples; samples were then centrifuged for 30 minutes at 4000rpm. After centrifugation, supernatant was transferred to a new 96-well plate, diluted with an equal volume of water and mixed thoroughly before LC-MS analysis.
Supernatents were analysed by LC-MS/MS. From the analysis data a response ratio was obtained using the formula Response Ratio = Test Peak Area/Internal Standard Peak Area. From the standard curve, the test peak area was converted to concentration of test compound.
To establish CNS penetration, the ratio of the concentration of each compound in the […] was assessed.

Where [2] appears, read: Example 2 table, as for example 1.
[3] abbreviates: brain, 1 mg/kg, iv, single compound, AUC0-24h, read-out: CNS penetration: total brain to plasma ratio AUC0-24h iv.
Setting [4] is: brain, 1 mg/kg, iv, single compound, t = 2 h, read-out: CNS penetration: total brain to plasma ratio @ t =2 h iv.
Where [5] appears, read: brain, po, p.o (5 mg/kg), AUC 0-24 h, read-out: CNS penetration: total brain to plasma ratio AUC 0-24 h.
[6] abbreviates: single enantiomer, 5nM MRS2365, values rounded to nearest whole number.
[7] abbreviates: racemic, 5nM MRS2365, values rounded to nearest whole number, N >= 4.

Each structure is given as a SMILES string. Where two headings read alike, the source gives them in different places.

What is called IC50 is the concentration that inhibits the measured activity by half. Read a low IC50 as greater potency. In general, inhibition refers to how much of the control response was suppressed. A high value points to a response far below the control.

T1 sequence (P47900 whole entry): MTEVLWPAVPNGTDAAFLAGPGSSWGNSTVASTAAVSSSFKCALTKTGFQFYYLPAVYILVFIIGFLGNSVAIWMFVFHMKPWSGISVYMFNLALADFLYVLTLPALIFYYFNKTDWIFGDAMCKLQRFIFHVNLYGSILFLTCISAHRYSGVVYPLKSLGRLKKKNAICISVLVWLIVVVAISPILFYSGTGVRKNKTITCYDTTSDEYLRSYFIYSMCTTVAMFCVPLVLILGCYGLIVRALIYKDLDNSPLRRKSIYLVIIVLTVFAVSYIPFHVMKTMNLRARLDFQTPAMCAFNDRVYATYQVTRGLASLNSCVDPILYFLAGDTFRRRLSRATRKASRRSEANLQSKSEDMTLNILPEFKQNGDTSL

Compound `O=C(Nc1ccc(OC(F)(F)F)cc1)Nc1cccnc1Oc1ccccc1[C@]1(C(F)(F)F)CCO1` [drawing 316] had an IC50 at P2Y1 receptor (setting [2]) of 0.119 µM. For the same compound, the values for the Kp at 24 h in data set [1] (setting [3]) and in data set [1] (setting [5]) were 3.1 and 2.4, respectively. Also, the Kp at 2 h in data set [1] (setting [4]) was 3.2. `Cc1ccc(NC(=O)Nc2ccc(OC(F)(F)F)cc2F)c(Oc2ccccc2[C@@]2(C(F)(F)F)CCO2)n1` [drawing 319] returned an IC50 on P2Y1 receptor (setting [2]) of 0.034 µM. Moreover, in data set [1] (setting [5]), the Kp at 24 h came to 1.7.

As for `Cc1ccc(NC(=O)Nc2ccc(Cl)cc2F)c(Oc2ccccc2[C@@]2(C(F)(F)F)CCO2)n1` [drawing 320], on P2Y1 receptor (setting [2]), the half-inhibitory concentration (IC50) was found to be 0.041 µM. Also, the Kp at 24 h in data set [1] (setting [5]) worked out at 1.3. Consider `O=C(Nc1ccc(OC(F)(F)F)cc1)Nc1cccnc1Oc1ccccc1C1(C(F)(F)F)CCO1` (centres unmarked), for which the IC50 at P2Y1 receptor (setting [2]) amounted to 0.084 µM. Also, the Kp in data set [1] (C57B16/J, brain and plasma, 1 mg/kg, iv, single compound, AUC0-24h, read-out: CNS penetration: total brain to plasma ratio AUC0-24h iv) is 2.1; in data set [1] (C57B16/J, brain and plasma, oral, p.o (5 mg/kg), AUC 0-24 h, read-out: CNS penetration: total brain to plasma ratio AUC 0-24 h) it was 1.9. The Kp at 2 h in data set [1] (C57B16/J, brain and plasma, 1 mg/kg, iv, single compound, t = 2 h, read-out: CNS penetration: total brain to plasma ratio @ t =2 h iv) was found to be 1.7. At P2Y1 receptor (setting [2]), `CN1CC[C@@]1(c1ccccc1Oc1ncccc1NC(=O)Nc1ccc(OC(F)(F)F)cc1)C(F)(F)F` (single isomer, unassigned) yielded an IC50 of 0.039 µM. Also, in data set [1] (C57B16/J, brain and plasma, po, p.o (5 mg/kg), value at t = 2h, read-out: CNS penetration: total brain to plasma ratio po (value at t = 2h)), the Kp at 2 h turned out to be 2.4. On P2Y1 receptor (setting [2]), `O=C(Nc1ccc(OC(F)(F)F)cc1)Nc1cccnc1Oc1ccccc1[C@@]1(C(F)(F)F)CCO1` [drawing 315] had a half-maximal inhibitory concentration (IC50) of 0.068 µM. Also, the Kp at 24 h in data set [1] (setting [3]) was found to be 3.3; in data set [1] (setting [5]), 2.6. Besides, the Kp at 2 h in data set [1] (setting [4]) is 2.8. As to `CN1CC[C@@]1(c1ccccc1Oc1ncccc1NC(=O)Nc1ccc(OC(F)(F)F)cc1F)C(F)(F)F` (single isomer, unassigned) [S98], at P2Y1 receptor (setting [6]), the IC50 was determined as 0.026 µM.

Consider `Cc1ccc(NC(=O)Nc2ccc(OC(F)(F)F)cc2F)c(Oc2ccccc2[C@@]2(C(F)(F)F)CCO2)n1` [S113], for which the IC50 at P2Y1 receptor (setting [6]) is 0.034 µM. On to `COc1ccc(NC(=O)Nc2cccnc2Oc2ccccc2C2(C(F)(F)F)CCO2)c(F)c1` (racemic) [S51, 1-(2-fluoro-4-methoxyphenyl)-3-(2-(2-(2-(trifluoromethyl)oxetan-2-yl)phenoxy)pyridin-3-yl)urea], for which the half-maximal inhibitory concentration (IC50) at P2Y1 receptor (setting [7]) came out at 0.473 µM.

In turn, `O=C(Nc1ccc(Cl)cc1)Nc1cccnc1Oc1ccccc1C1(C(F)(F)F)CCO1` (racemic) [S27, 1-(4-chlorophenyl)-3-(2-(2-(2-(trifluoromethyl)oxetan-2-yl)phenoxy)pyridin-3-yl)urea] displayed an IC50 on P2Y1 receptor (setting [7]) of 0.153 µM. On the same count and under the same terms, as for `Cc1ccc(NC(=O)Nc2ccc(Cl)cc2F)c(Oc2ccc(F)cc2C2(C(F)(F)F)CCO2)n1` (racemic) [S16, 1-(4-chloro-2-fluorophenyl)-3-(2-(4-fluoro-2-(2-(trifluoromethyl)oxetan-2-yl)phenoxy)-6-methylpyridin-3-yl)urea], the figure is 0.108 µM. Same read-out and setting: the same measure for `Cc1ccc(NC(=O)Nc2nc3ccc(C)nc3s2)c(Oc2ccc(F)cc2C2(C(F)(F)F)CCO2)n1` (racemic) [S34, 1-(2-(4-fluoro-2-(2-(trifluoromethyl)oxetan-2-yl)phenoxy)-6-methylpyridin-3-yl)-3-(5-methylthiazolo[5,4-b]pyridin-2-yl)urea]: 0.196 µM; for `COc1cc(NC(=O)Nc2ccc(C)nc2Oc2ccc(F)cc2C2(C(F)(F)F)CCO2)ccn1` (racemic) [S77, 1-(2-(4-fluoro-2-(2-(trifluoromethyl)oxetan-2-yl)phenoxy)-6-methylpyridin-3-yl)-3-(2-methoxypyridin-4-yl)urea]: 3.14 µM. Take `Cc1ccc(NC(=O)Nc2ccc(C(C)(C)C(F)(F)F)cc2)c(Oc2ccccc2[C@@]2(C(F)(F)F)CCO2)n1` (single isomer, unassigned) [S99]: the IC50 at P2Y1 receptor (setting [6]) was found to be 0.029 µM. Consider `O=C(Nc1ccc(OC2CC(F)(F)C2)cc1)Nc1cccnc1Oc1ccccc1C1(C(F)(F)F)CCO1` (racemic) [S36, 1-(4-(3,3-difluorocyclobutoxy)phenyl)-3-(2-(2-(2-(trifluoromethyl)oxetan-2-yl)phenoxy)pyridin-3-yl)urea], for which, at P2Y1 receptor (setting [7]), the concentration for half-maximal inhibition (IC50) is 0.207 µM.

In turn, `Cc1ccc(NC(=O)Nc2ccc3c(c2)OC(F)(F)O3)c(Oc2ccc(F)cc2C2(C(F)(F)F)CCO2)n1` (racemic) [S41, 1-(2,2-difluorobenzo[d][1,3]dioxol-5-yl)-3-(2-(4-fluoro-2-(2-(trifluoromethyl)oxetan-2-yl)phenoxy)-6-methylpyridin-3-yl)urea] returned an IC50 on P2Y1 receptor (setting [7]) of 0.287 µM.

Compound `O=C(Nc1ccc(Cl)cc1F)Nc1cccnc1Oc1ccccc1C1(C(F)(F)F)CCO1` (racemic) [S29, 1-(4-chloro-2-fluorophenyl)-3-(2-(2-(2-(trifluoromethyl)oxetan-2-yl)phenoxy)pyridin-3-yl)urea] showed a half-inhibitory concentration (IC50) at P2Y1 receptor (setting [7]) of 0.165 µM. On to `COc1ccc2nc(Nc3cccnc3Oc3ccc(F)cc3C3(C(F)(F)F)CCO3)[nH]c2n1` (racemic) [S96], for which, on P2Y1 receptor (at maximum tested concentration of 10000 nM, full dose-response curve not generated), testing at 10 µM gave an inhibition of 56%. `O=C(Nc1ccc(OC(F)F)cc1)Nc1cccnc1Oc1ccccc1C1(C(F)(F)F)CCO1` (racemic) [S43] came in with a half-inhibitory concentration (IC50) at P2Y1 receptor (setting [7]) of 0.334 µM. As to `[2H]C([2H])([2H])Oc1ccc(NC(=O)Nc2cccnc2Oc2ccccc2C2(C(F)(F)F)CCO2)c(F)c1` (racemic) [S52, 1-(2-fluoro-4-(methoxy-d3)phenyl)-3-(2-(2-(2-(trifluoromethyl)oxetan-2-yl)phenoxy)pyridin-3-yl)urea], the IC50 at P2Y1 receptor (setting [7]) was found to be 0.5 µM. As to `Cc1ccc(NC(=O)Nc2ccc(Cl)cc2F)c(Oc2ccccc2C2(C(F)(F)F)CCO2)n1` (racemic) [S4, 1-(4-chloro-2-fluorophenyl)-3-(6-methyl-2-(2-(2-(trifluoromethyl)oxetan-2-yl)phenoxy)pyridin-3-yl)urea], at P2Y1 receptor (setting [7]), the 50% inhibitory concentration (IC50) was 0.043 µM. `COc1ccc(F)c(NC(=O)Nc2cccnc2Oc2ccc(F)cc2C2(C(F)(F)F)CCO2)c1` (racemic) [S57, 1-(2-(4-fluoro-2-(2-(trifluoromethyl)oxetan-2-yl)phenoxy)pyridin-3-yl)-3-(2-fluoro-5-methoxyphenyl)urea] yielded an IC50 at P2Y1 receptor (setting [7]) of 0.589 µM. In the case of `Cc1c(Oc2ncccc2NC(=O)Nc2ccc(OC(F)(F)F)cc2)cccc1N1CC(C)(C)C1` [S93], on P2Y1 receptor (setting [7]), the IC50 turned out to be 0.683 µM.

For the compound `COc1ccc(NC(=O)Nc2ccc(C)nc2Oc2ccc(F)cc2C2(C(F)(F)F)CCO2)cn1` (racemic) [S75, 1-(2-(4-fluoro-2-(2-(trifluoromethyl)oxetan-2-yl)phenoxy)-6-methylpyridin-3-yl)-3-(6-methoxypyridin-3-yl)urea], the IC50 at P2Y1 receptor (setting [7]) worked out at 2.65 µM. For the compound `O=C(Nc1cccnc1Oc1ccccc1C1(C(F)(F)F)CCO1)NC1CC2(CC2)C1` (racemic) [S74], the IC50 on P2Y1 receptor (setting [7]) is 2.14 µM. With `O=C(Nc1ccc(OC(F)(F)F)cc1F)Nc1cccnc1Oc1ccccc1[C@@]1(C(F)(F)F)CCO1` [S112], on P2Y1 receptor (setting [6]), the IC50 is 0.038 µM.

Values taken from patent EP4095134A1, “POLYCYCLIC COMPOUNDS FOR THE TREATMENT OF NEUROLOGICAL INDICATIONS” (UCL Business Ltd, priority 2021, dated 2022).
